PMC8398451, “Molecular Engineering of Curcumin, an Active Constituent of Curcuma longa L. (Turmeric) of the Family Zingiberaceae with Improved Antiproliferative Activity” (Plants, 2021)
Like-named read-outs stand apart in the source and are kept apart here.

Columns and labels:
[1] = test system: Prostate Cancer cell line panel; assay: NCI antiproliferative assay, panel summary; assay type: cell-based, Human
NCI-H322M = assay: NCI antiproliferative SRB assay, Non-Small Cell Lung Cancer panel; assay type: cell-based, Human
M14 = assay: NCI antiproliferative SRB assay, Melanoma panel; assay type: cell-based, Human
UO-31 = assay: NCI antiproliferative SRB assay, Renal Cancer panel; assay type: cell-based, Human
[2] = test system: Ovarian Cancer cell line panel; assay: NCI antiproliferative assay, panel summary; assay type: cell-based, Human
OVCAR-5 = assay: NCI antiproliferative SRB assay, Ovarian Cancer panel; assay type: cell-based, Human
A549/ATCC = assay: NCI antiproliferative SRB assay, Non-Small Cell Lung Cancer panel; assay type: cell-based, Human
HCC-2998 = assay: NCI antiproliferative SRB assay, Colon Cancer panel; assay type: cell-based, Human
RXF 393 = assay: NCI antiproliferative SRB assay, Renal Cancer panel; assay type: cell-based, Human
HCT-116 = assay: NCI antiproliferative SRB assay, Colon Cancer panel; assay type: cell-based, Human
SR = assay: NCI antiproliferative SRB assay, Leukemia panel; assay type: cell-based, Human
UACC-62 = assay: NCI antiproliferative SRB assay, Melanoma panel; assay type: cell-based, Human
HL-60(TB) = assay: cells; assay type: cell-based
NCI-H460 = assay: NCI antiproliferative SRB assay, Non-Small Cell Lung Cancer panel; assay type: cell-based, Human
[3] = test system: CNS Cancer cell line panel; assay: NCI antiproliferative assay, panel summary; assay type: cell-based, Human
UACC-257 = assay: NCI antiproliferative SRB assay, Melanoma panel; assay type: cell-based, Human
RPMI-8226 = assay: NCI antiproliferative SRB assay, Leukemia panel; assay type: cell-based, Human
MOLT-4 = assay: NCI antiproliferative SRB assay, Leukemia panel; assay type: cell-based, Human
CCRF-CEM = assay: NCI antiproliferative SRB assay, Leukemia panel; assay type: cell-based, Human
TK-10 = assay: NCI antiproliferative SRB assay, Renal Cancer panel; assay type: cell-based, Human
KM12 = assay: NCI antiproliferative SRB assay, Colon Cancer panel; assay type: cell-based, Human
Leukemia cell line panel = assay: NCI antiproliferative assay, panel summary; assay type: cell-based, Human; settings: for GI50: Homo sapiens
SNB-75 = assay: NCI antiproliferative SRB assay, CNS Cancer panel; assay type: cell-based, Human
SF-268 = assay: NCI antiproliferative SRB assay, CNS Cancer panel; assay type: cell-based, Human
Melanoma cell line panel = assay: NCI antiproliferative assay, panel summary; assay type: cell-based, Human
BT-549 = assay: NCI antiproliferative SRB assay, Breast Cancer panel; assay type: cell-based, Human
SK-MEL-2 = assay: NCI antiproliferative SRB assay, Melanoma panel; assay type: cell-based, Human
OVCAR-8 = assay: NCI antiproliferative SRB assay, Ovarian Cancer panel; assay type: cell-based, Human
SNB-19 = assay: NCI antiproliferative SRB assay, CNS Cancer panel; assay type: cell-based, Human
LOX IMVI = assay: NCI antiproliferative SRB assay, Melanoma panel; assay type: cell-based, Human
ACHN = assay: NCI antiproliferative SRB assay, Renal Cancer panel; assay type: cell-based, Human
[4] = Homo sapiens, 5-dose assay, read-out: Sub Panel MID b (mean GI50 of panel)
[5] = Homo sapiens, 5-dose 0.01-100 µM
[6] = Homo sapiens, 5-dose 0.01-100 µM, read-out: LC50 (the source's name)

SMILES: COc1cc(/C=C/c2cc(/C=C/c3ccc(O)c(OC)c3)n(C(=O)Nc3ccc(C(F)(F)F)cc3)n2)ccc1O [3c]
- Mean % GI ([1]; 10 µM): 57.21%
- Selectivity Ratio (MID a:MID b) ([1]; 5-dose assay): 0.82
- GI50 [1, 4]: 3.44 µM
- TGI (NCI-H322M; 5-dose 0.01-100 µM): 12.9 µM
- GI50 (NCI-H322M; [5]): 3.25 µM
- CC50 (NCI-H322M; [6]): 49.6 µM
- %GI (NCI-H322M; one dose 10 µM): 17.30%
- GP (growth percent) (NCI-H322M; one dose 10 µM): 82.70
- TGI (M14; 5-dose 0.01-100 µM): 4.08 µM
- GI50 (M14; [5]): 1.94 µM
- CC50 (M14; [6]): 8.58 µM
- %GI (M14; one dose 10 µM): 70.52%
- GP (growth percent) (M14; one dose 10 µM): 29.48
- GI50 (UO-31; [5]): 1.94 µM
- LC50 (50% lethal concentration) (UO-31; [5]): > 100 µM
- %GI (UO-31; one dose 10 µM): 57.15%
- GP (growth percent) (UO-31; one dose 10 µM): 42.85
- Mean % GI ([2]; 10 µM): 47.62%
- Selectivity Ratio (MID a:MID b) ([2]; 5-dose assay): 0.88
- GI50 [2, 4]: 3.24 µM
- TGI (OVCAR-5; 5-dose 0.01-100 µM): 4.97 µM
- GI50 (OVCAR-5; [5]): 2.16 µM
- CC50 (OVCAR-5; [6]): 15.2 µM
- GP (growth percent) (OVCAR-5; one dose 10 µM): 115.18
- TGI (A549/ATCC; 5-dose 0.01-100 µM): >100 µM
- GI50 (A549/ATCC; [5]): 4.11 µM
- LC50 (50% lethal concentration) (A549/ATCC; [5]): > 100 µM
- %GI (A549/ATCC; one dose 10 µM): 57.05%
- GP (growth percent) (A549/ATCC; one dose 10 µM): 42.95
- TGI (HCC-2998; 5-dose 0.01-100 µM): 3.82 µM
- GI50 (HCC-2998; [5]): 2.04 µM
- CC50 (HCC-2998; [6]): 71.2 µM
- %GI (HCC-2998; one dose 10 µM): −2.63%
- GP (growth percent) (HCC-2998; one dose 10 µM): 102.63
- TGI (RXF 393; 5-dose 0.01-100 µM): 3.73 µM
- GI50 (RXF 393; [5]): 1.98 µM
- %GI (RXF 393; one dose 10 µM): 77.34%
- GP (growth percent) (RXF 393; one dose 10 µM): 22.66
- TGI (HCT-116; 5-dose 0.01-100 µM): 2.94 µM
- GI50 (HCT-116; [5]): 1.51 µM
- CC50 (HCT-116; [6]): 5.7 µM
- %GI (HCT-116; one dose 10 µM): 153.67%
- GP (growth percent) (HCT-116; one dose 10 µM): −53.67
- TGI (SR; 5-dose 0.01-100 µM): >100 µM
- GI50 (SR; [5]): 1.48 µM
- CC50 (SR; [6]): > 100 µM
- %GI (SR; one dose 10 µM): 86.79%
- GP (growth percent) (SR; one dose 10 µM): 13.21
- TGI (UACC-62; 5-dose 0.01-100 µM): 4.76 µM
- GI50 (UACC-62; [5]): 2.02 µM
- CC50 (UACC-62; [6]): 16.7 µM
- %GI (UACC-62; one dose 10 µM): 68.90%
- GP (growth percent) (UACC-62; one dose 10 µM): 31.10
- TGI (HL-60(TB); 5-dose 0.01-100 µM): 6.45 µM
- GI50 (HL-60(TB); [5]): 1.98 µM
- CC50 (HL-60(TB); [6]): > 100 µM
- %GI (HL-60(TB); one dose 10 µM): 84.83%
- GP (growth percent) (HL-60(TB); one dose 10 µM): 15.17
- TGI (NCI-H460; 5-dose 0.01-100 µM): 9.95 µM
- GI50 (NCI-H460; [5]): 3.22 µM
- CC50 (NCI-H460; [6]): 50.7 µM
- %GI (NCI-H460; one dose 10 µM): 81.71%
- GP (growth percent) (NCI-H460; one dose 10 µM): 18.29
- Mean % GI ([3]; 10 µM): 53.38%
- Selectivity Ratio (MID a:MID b) ([3]; 5-dose assay): 1.02
- GI50 [3, 4]: 2.78 µM
- TGI (UACC-257; 5-dose 0.01-100 µM): 14.0 µM
- GI50 (UACC-257; [5]): 4.01 µM
- CC50 (UACC-257; [6]): 42 µM
- %GI (UACC-257; one dose 10 µM): 74.99%
- GP (growth percent) (UACC-257; one dose 10 µM): 25.01
- TGI (RPMI-8226; 5-dose 0.01-100 µM): 6.59 µM
- GI50 (RPMI-8226; [5]): 2.09 µM
- CC50 (RPMI-8226; [6]): > 100 µM
- %GI (RPMI-8226; one dose 10 µM): 100.21%
- GP (growth percent) (RPMI-8226; one dose 10 µM): −0.21
- TGI (MOLT-4; 5-dose 0.01-100 µM): 20.0 µM
- GI50 (MOLT-4; [5]): 2.73 µM
- CC50 (MOLT-4; [6]): > 100 µM
- %GI (MOLT-4; one dose 10 µM): 88.91%
- GP (growth percent) (MOLT-4; one dose 10 µM): 11.09
- GI50 (CCRF-CEM; [5]): 2.63 µM
- CC50 (CCRF-CEM; [6]): > 100 µM
- %GI (CCRF-CEM; one dose 10 µM): 96.58%
- GP (growth percent) (CCRF-CEM; one dose 10 µM): 3.42
- TGI (TK-10; 5-dose 0.01-100 µM): 14.8 µM
- GI50 (TK-10; [5]): 4.13 µM
- CC50 (TK-10; [6]): 59.4 µM
- %GI (TK-10; one dose 10 µM): 22.31%
- GP (growth percent) (TK-10; one dose 10 µM): 77.69
- TGI (KM12; 5-dose 0.01-100 µM): 5.59 µM
- GI50 (KM12; [5]): 2.33 µM
- CC50 (KM12; [6]): 54 µM
- %GI (KM12; one dose 10 µM): 58.62%
- GP (growth percent) (KM12; one dose 10 µM): 41.38
- Mean % GI (Leukemia cell line panel; 10 µM): 91.31%
- Selectivity Ratio (MID a:MID b) (Leukemia cell line panel; 5-dose assay): 1.27
- GI50 (Leukemia cell line panel; 5-dose assay, read-out: GI50 values, range over the leukemia panel): 1.48 to 2.73 µM
- GI50 (Leukemia cell line panel; 5-dose assay, read-out: Sub Panel MID b (mean GI50 of panel)): 2.24 µM
- TGI (SNB-75; 5-dose 0.01-100 µM): 66.0 µM
- GI50 (SNB-75; [5]): 2.99 µM
- CC50 (SNB-75; [6]): > 100 µM
- %GI (SNB-75; one dose 10 µM): 28.20%
- GP (growth percent) (SNB-75; one dose 10 µM): 71.80
- TGI (SF-268; 5-dose 0.01-100 µM): 15.4 µM
- GI50 (SF-268; [5]): 2.8 µM
- CC50 (SF-268; [6]): > 100 µM
- %GI (SF-268; one dose 10 µM): 62.88%
- GP (growth percent) (SF-268; one dose 10 µM): 37.12
- Mean % GI (Melanoma cell line panel; 10 µM): 60.81%
- GI50 (Melanoma cell line panel; [4]): 2.51 µM
- TGI (BT-549; 5-dose 0.01-100 µM): 3.67 µM
- GI50 (BT-549; [5]): 1.96 µM
- CC50 (BT-549; [6]): 6.86 µM
- %GI (BT-549; one dose 10 µM): 81.03%
- GP (growth percent) (BT-549; one dose 10 µM): 18.97
- TGI (SK-MEL-2; 5-dose 0.01-100 µM): 17.3 µM
- GI50 (SK-MEL-2; [5]): 3.15 µM
- CC50 (SK-MEL-2; [6]): > 100 µM
- %GI (SK-MEL-2; one dose 10 µM): 15.53%
- GP (growth percent) (SK-MEL-2; one dose 10 µM): 84.47
- TGI (OVCAR-8; 5-dose 0.01-100 µM): >100 µM
- GI50 (OVCAR-8; [5]): 3.33 µM
- CC50 (OVCAR-8; [6]): > 100 µM
- %GI (OVCAR-8; one dose 10 µM): 99.57%
- GP (growth percent) (OVCAR-8; one dose 10 µM): 0.43
- TGI (SNB-19; 5-dose 0.01-100 µM): 11.2 µM
- GI50 (SNB-19; [5]): 3.16 µM
- CC50 (SNB-19; [6]): 36.9 µM
- %GI (SNB-19; one dose 10 µM): 51.32%
- GP (growth percent) (SNB-19; one dose 10 µM): 48.68
- TGI (LOX IMVI; 5-dose 0.01-100 µM): 3.71 µM
- GI50 (LOX IMVI; [5]): 1.77 µM
- %GI (LOX IMVI; one dose 10 µM): 90.89%
- GP (growth percent) (LOX IMVI; one dose 10 µM): 9.11
- TGI (ACHN; 5-dose 0.01-100 µM): 7.08 µM
- GI50 (ACHN; [5]): 2.48 µM
- CC50 (ACHN; [6]): > 100 µM
- GP (growth percent) (ACHN; one dose 10 µM): 65.82
